The assay deals with 5-HT4 receptor (Sus scrofa, UniProt Q6Q253). The assay can be described thus: 5-HT4 receptor binding (competition against [^3 H]-GR 113808, pig striatum). To be noted: 0.1 nM [^3 H]-GR 113808, 30 min at 37° C., read-out: Ki (affinity for the 5-HT4 receptor). As for the experimental part: The affinity of the compounds of formula (I) for 5-HT4 serotoninergic receptors was tested "in vitro" by receptor binding studies in the pig striatum, a tissue particularly rich in 5-HT4 receptors.
Receptor binding studies on 5-HT4 receptor were carried out to determine the affinity of the test compounds.
Pig striatum was removed, cleaned and homogenized (w/v 1:70) with an Ultra-Turrax at maximal speed for 30 s, followed by use of a Potter-Elvehjem homogenizer (30 strokes) in 50 mM Hepes buffer, pH 7.4 and filtered through two layers of cheese-cloth.
Binding curves for the different compounds were derived indirectly from competition experiments against 0.1 nM [^3 H]-GR 113808.
A 1 ml aliquot of homogenate was incubated for 30 min at 37° C. in the presence of the marker ligand and different concentrations of the cold ligands.
The incubation was stopped by rapid filtration using an automatic apparatus (1H -110 Inotech). The filters (Inotech glass fibre filter, type G7) were then transferred to scintillation vials containing 4 ml of Filter Count (Packard) and the radioactivity present was counted by liquid scintillation spectrometry (Kontron Betamat V). Assays were carried out in triplicated and non specific binding was defined as the radioactivity bound or entrapped in the filter when the incubation medium contained 10 μM of BIMU 0001 (3-ethyl-2,3-dihydro-2-oxo-benzimidazole-1(3a-tropyl carboxamide). Non specific binding was about 10-15%. The inhibition constant (Ki) was calculated after correction for the radioligand occupancy shift according to the equation of Cheng and Prusoff (Biochem. Pharmacol. 22, 3099, 1973).

The record followed here is US6002009A, “Di-substituted 1,4-piperidine esters and amides having 5-HT4 antagonistic activity” (Boehringer Ingelheim Italia, S.p.A., priority 1995, dated 1999).

Sequence of 5-HT4 receptor (Q6Q253 1-402): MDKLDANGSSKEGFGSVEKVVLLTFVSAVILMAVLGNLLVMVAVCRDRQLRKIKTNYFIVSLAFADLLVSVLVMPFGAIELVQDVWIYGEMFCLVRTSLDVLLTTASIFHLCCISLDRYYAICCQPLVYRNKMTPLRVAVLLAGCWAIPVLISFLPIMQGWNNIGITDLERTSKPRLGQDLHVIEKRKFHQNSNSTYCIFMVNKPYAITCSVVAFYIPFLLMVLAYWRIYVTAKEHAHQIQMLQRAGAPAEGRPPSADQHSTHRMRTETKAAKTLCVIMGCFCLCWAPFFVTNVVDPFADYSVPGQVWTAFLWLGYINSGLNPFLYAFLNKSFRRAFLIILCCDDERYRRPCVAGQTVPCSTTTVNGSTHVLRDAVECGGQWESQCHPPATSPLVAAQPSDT

Take `CCNC(=O)N[C@@H](Cc1c[nH]c2ccccc12)CN1CCC(COC(=O)c2cc(Cl)c(N)cc2OC)CC1` [Compound 1, S(+)-4-Amino-5-chloro-2-methoxy-benzoic acid {1-[2-(3-ethyl-ureido)-3-(1H-indol-3-yl)propyl]piperidin-4-yl} methyl, ester]: the Ki came to 4.6 nM.

On to `CCOC(=O)N[C@@H](CCSC)CN1CCC(COC(=O)c2cc(Cl)c(N)cc2OC)CC1` [Compound 9, S(+)-4-Amino-5-chloro-2-methoxy-benzoic acid [1-(2-ethoxycarbonyl-amino-4-methylthio-butyl)-piperidin-4-yl]methyl ester], for which the Ki is 4.3 nM.

As for `COc1cc(N)c(Cl)cc1C(=O)OCC1CCN(C[C@H](Cc2c[nH]c3ccccc23)NC(=O)OCc2ccccc2)CC1` [Compound 10, S(+)-4-Amino-5-chloro-2-methoxybenzoic acid {1-[2-benzyloxycarbonyl-amino-3-(1H-indol-3-yl)-propyl]piperidin-4-yl} methyl ester], the Ki was determined as 2.1 nM.

`COc1cc(N)c(Cl)cc1C(=O)OCC1CCN(C[C@H](Cc2ccccc2)NC(=O)OCc2ccccc2)CC1` [Compound 11, S(+)-4-Amino-5-chloro-2-methoxybenzoic acid [1-(2-benzyloxycarbonyl-amino-3-phenyl-propyl)-piperidin-4-yl]methyl ester]: the Ki stood at 1.1 nM.

With `CCOC(=O)N[C@@H](CO)CN1CCC(COC(=O)n2c3ccccc3c3ccccc32)CC1` [Compound 12, R(+)-Carbazole-9-carboxylic acid [1(2-ethoxycarbonyl-amino-3-hydroxy-propyl)-piperidin-4-yl]methyl ester], the Ki stood at 2.8 nM.

As to `CCNC(=O)N[C@@H](CO)CN1CCC(COC(=O)n2c3ccccc3c3ccccc32)CC1` [Compound 13, R(+)-Carbazole-9-carboxylic acid {1-[2-(3-ethyl-ureido)-3-hydroxy-propyl]-piperidin-4-yl} methyl ester], the Ki is 4.3 nM.

On to `O=C(Nc1ccccc1)N[C@@H](CO)CN1CCC(COC(=O)c2c[nH]c3ccc(F)cc23)CC1` [Compound 16, R(+)-5-Fluoro-1H-indol-3-carboxylic acid {1-[2-(3-phenyl-ureido)-3-hydroxy-propyl]-piperidin-4-yl} methyl ester], for which the Ki stood at 2.9 nM.

As to `COc1[nH]c2ccc(F)cc2c1C(=O)OCC1CCN(C[C@H](CO)NC(=O)OCc2ccccc2)CC1` [Compound 17, R(+)-5-Fluoro-2-methoxy-1H-indol-3-carboxylic acid [1-(2-benzyloxycarbonyl-amino-3-hydroxy-propyl)-piperidin-4-yl]methyl ester], the Ki was found to be 0.16 nM.

With `CCOC(=O)N[C@@H](CO)CN1CCC(COC(=O)c2c(OC)[nH]c3ccc(F)cc23)CC1` [Compound 19, R(+)-5-Fluoro-2-methoxy-1H-indol-3-carboxylic acid [1-(2-ethoxycarbonyl-amino-3-hydroxy-propyl)piperidin-4-yl]methyl ester], the Ki turned out to be 0.25 nM.

For the molecule `C[C@@H](CN1CCC(COC(=O)n2c(=O)[nH]c3ccccc32)CC1)NC(=O)OCc1ccccc1` [Compound 21, S(+)-2-Oxo-2,3-dihydro-benzimidazol-1-carboxylic acid [1-(2-benzyloxycarbonyl-amino)-propyl-piperidin-4-yl]-methyl ester], the Ki was determined as 1.3 nM.

On to `CCn1c(=O)n(C(=O)OCC2CCN(C[C@H](C)NC(=O)OCc3ccccc3)CC2)c2ccccc21` [Compound 23, S(+)-3-Ethyl-2-oxo-2,3-dihydro-benzimidazol-1-carboxylic acid [1-(2-benzyloxycarbonyl-amino)-propyl-piperidin-4-yl]-methyl ester], for which the Ki came out at 0.86 nM.

On to `CCn1c(=O)n(C(=O)NCC2CCN(C[C@H](CCSC)NC(=O)Nc3ccccc3)CC2)c2ccccc21` [Compound 26, S(-)-3-Ethyl-2-oxo-2,3-dihydro-benzimidazol-1-carboxamide-{1-[2-(3-phenyl-ureido)-4-methylthio-butyl]-piperidin-4-yl-methyl}], for which the Ki is 1 nM.

Consider `CCn1c(=O)n(C(=O)NCC2CCN(C[C@H](CC(N)=O)NC(=O)Nc3ccccc3)CC2)c2ccccc21` [Compound 30, S(+)-3-Ethyl-2-oxo-2,3-dihydro-benzimidazol-1-carboxamide-{1-[2-(3-phenyl-ureido)-3-carbamoyl-propyl]-piperidin-4-yl-methyl}], for which the Ki stood at 4.3 nM.

On to `CCOC(=O)N[C@@H](CCSC)CN1CCC(CNC(=O)n2c(=O)n(CC)c3ccccc32)CC1` [Compound 34, S(+)-3-Ethyl-2-oxo-2,3-dihydro-benzimidazol-1-carboxamide-[1-(2-ethoxycarbonylamino-4-methylthio-butyl)-piperidin-4-yl-methl]], for which the Ki is 3.2 nM.

In the case of `CCn1c(=O)n(C(=O)NCC2CCN(C[C@H](CO)NC(=O)Nc3ccccc3)CC2)c2ccccc21` [Compound 35, R(+)-3-Ethyl-2-oxo-2,3-dihydro-benzimidazol-1-carboxamide-{1-[2-(3-phenyl-ureido)-3-hydroxy-propyl]-piperidin-4-yl-methyl}], the Ki is 1.6 nM.

With `CCNC(=O)N[C@@H](CO)CN1CCC(CNC(=O)n2c(=O)n(CC)c3ccccc32)CC1` [Compound 36], the Ki came out at 3 nM.

As for `CCn1c(=O)n(C(=O)NCC2CCN(C[C@H](CO)NC(=O)OCc3ccccc3)CC2)c2ccccc21` [Compound 37, R(+)-3-Ethyl-2-oxo-2,3-dihydro-benzimidazol-1-carboxamide-[1-(2-benzyloxycarbonylamino-3-hydroxy-propyl)-piperidin-4-yl-methyl]], the inhibitory constant (Ki) was found to be 0.37 nM.

As a reminder, the Ki is the dissociation constant of the complex between target and ligand, obtained from inhibition or displacement.
